In ChEMBL document CHEMBL1201862, “PubChem BioAssay data set” (2004):
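Each compound was tested at five concentrations against cells in 96-well plates for 48 hours. GI50: concentration for 50% inhibition of growth.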 The source made the active and inactive calls. Cut-off read from the data, not from the text of the source: active = GI50 up to about 1.1 µM and inactive = higher.

Columns and labels:
Assay in all cases: NCI anticancer screen, dose series, 48 h
HCT-15 = system: HCT-15
SF-539 = system: SF-539
U-251 = system: U-251
TK-10 = system: TK-10
RPMI-8226 = system: RPMI-8226
NCI/ADR-RES = system: NCI/ADR-RES
MDA-MB-231 = system: MDA-MB-231
HL-60 = system: HL-60
UACC-62 = system: UACC-62
SNB-19 = system: SNB-19
NCI-H460 = system: NCI-H460
SN12C = system: SN12C
SF-295 = system: SF-295
SW-620 = system: SW-620
HCT-116 = system: HCT-116
SR = system: SR
NCI-H522 = system: NCI-H522
PC-3 = system: PC-3
COLO 205 = system: COLO 205
Malme-3M = system: Malme-3M
HT-29 = system: HT-29
A498 = system: A498
LOX IMVI = system: LOX IMVI
MOLT-4 = system: MOLT-4
MDA-MB-435 = system: MDA-MB-435
SK-MEL-5 = system: SK-MEL-5
ACHN = system: ACHN
SK-MEL-2 = system: SK-MEL-2
BT-549 = system: BT-549
M14 = system: M14
OVCAR-8 = system: OVCAR-8
DU-145 = system: DU-145
K562 = system: K562
HOP-92 = system: HOP-92
SNB-75 = system: SNB-75
UO-31 = system: UO-31
T47D = system: T47D
OVCAR-4 = system: OVCAR-4
CAKI-1 = system: CAKI-1
RXF 393 = system: RXF 393
UACC-257 = system: UACC-257
OVCAR-3 = system: OVCAR-3
IGROV-1 = system: IGROV-1
MCF7 = system: MCF7
SK-OV-3 = system: SK-OV-3
EKVX = system: EKVX
OVCAR-5 = system: OVCAR-5
786-0 = system: 786-0
KM12 = system: KM12
HCC 2998 = system: HCC 2998
NCI-H23 = system: NCI-H23
Hs-578T = system: Hs-578T
NCI-H226 = system: NCI-H226
SK-MEL-28 = system: SK-MEL-28
SF-268 = system: SF-268
A549 = system: A549
HOP-62 = system: HOP-62

Measured: GI50

S=c1nc(N/N=C/c2cccs2)c2cn[nH]c2[nH]1
19.5 µM: HCT-15
active: NCI-H460 0.134 µM | A549 0.238 µM
inactive: SF-539 50.2 µM | U-251 25.1 µM | TK-10 17.9 µM | RPMI-8226 5.04 µM | NCI/ADR-RES 27.2 µM | MDA-MB-231 28.1 µM | HL-60 76.4 µM | UACC-62 25.4 µM | SNB-19 58.2 µM | SN12C 32.3 µM | SF-295 12.4 µM | SW-620 37.1 µM | HCT-116 16.2 µM | SR 11.8 µM | NCI-H522 27.3 µM | PC-3 15.1 µM | COLO 205 6.87 µM | Malme-3M 41.4 µM | HT-29 29.5 µM | A498 4.02 µM | LOX IMVI 25.5 µM | MOLT-4 14 µM | MDA-MB-435 16.3 µM | SK-MEL-5 31.1 µM | ACHN 26.8 µM | SK-MEL-2 58.2 µM | BT-549 > 100 µM | M14 33.4 µM | OVCAR-8 25.6 µM | DU-145 34.8 µM | K562 16.3 µM | HOP-92 52.6 µM | SNB-75 97.7 µM | UO-31 > 100 µM | T47D 23.7 µM | OVCAR-4 31.5 µM | CAKI-1 14.8 µM | RXF 393 16.1 µM | UACC-257 35.7 µM | OVCAR-3 9.25 µM | IGROV-1 20.2 µM | MCF7 4.23 µM | SK-OV-3 > 100 µM | EKVX 31.9 µM | OVCAR-5 17.2 µM | 786-0 27.9 µM | KM12 6.43 µM | HCC 2998 10.1 µM | NCI-H23 21.2 µM | Hs-578T > 100 µM | NCI-H226 92 µM | SK-MEL-28 46.7 µM | SF-268 38 µM | HOP-62 23.2 µM
